According to patent EP1655608A1, “CFTR as a component of an autophagy signaling pathway, applications thereof to autophagic diseases, and determination of cystic fibrosis as an autophagic disease” (priority 2004, dated 2006):

Key:
CFTR^-/- cells = test: Starvation-induced autophagic death of CFTR-/- renal cells; format: cell-based, mouse; settings: nutrient-free medium
Method: (§1) For nutrient deprivation, cells were washed with DMEM and first starved in minimal medium lacking serum for 90 min. Cells were then washed again with PBS and deprived for up to 16 h in nutrient-free medium lacking amino acids, vitamins, and serum (HBSS, 0.1% BSA, 20 mM HEPES, Sigma #H8264). As controls, cells were incubated in this nutrient-free medium supplemented with a mixture of non essential amino acids (0.1 mM, GIBCO, #11140-035).

Sertoli 42GPA9 cells = test: Autophagic vacuolation of Sertoli cells (light, electron and confocal microscopy); format: cell-based, mouse; settings: for effect on Lindane-induced vacuolation: pretreatment 90 min before Lindane 50 µM, 3 MA 30 mM, BafA1 100 nM, NPPB 25 µM; for effect on Lindane-preformed vacuoles: added after vacuole formation; for induction of vacuolation / autophagy by the chemical alone: Lindane 50 µM, DDT 1.8 µM, Bϕ 90 µM, PCP 15 µM, SB203580 10 µM, NH4Cl 5 mM
Method: Autophagy was induced either by starvation or by treatment with Lindane under nutrient-rich condition.
(§2) When bafilomycin A1 (BafA1, V-ATPase-specific inhibitor, 100 nM, Sigma); Park Davis Inhibitor PD98059 (MEK1-specific inhibitor, 10 µM, Cell Signaling), H89 (PKA inhibitor, 5 µM, Calbiochem), 3-Methyladenine (3 MA, autophagy-specific inhibitor, 10-30 mM, Sigma) or NPPB [5-nitro-2-(3-phenylpropylamino) benzoic acid, Cl^- channel blocker, 25 µM, Sigma] was used, it was added to the starvation medium for 90 min, prior to Lindane addition or nutrient deprivation.
The ultrastructural changes caused by Lindane or starvation in Sertoli and renal cells were analysed by transmission electron microscopy, as previously described (57). […] Cell pellets were then rinsed in cacodylate buffer, postfixed in 1% OsO4 for 1 h at 4°C, dehydrated through graded ethanol washes, and embedded in epoxy resin. Oriented […] sections were obtained with diamond knives, and representative areas were chosen for ultra-thin sectioning. […] 30-50 micrographs were taken randomly from each sample at primary magnification × 10,000.
Sertoli cells seeded on glass coverslips were transiently transfected with EGFP-Rab7 or MEK1^+-HA expression plasmids using Fugene 6 reagent (Roche), washed and allowed to recover overnight before addition of Lindane (50 µM). […] To determine the pH of the Lindane-induced vacuoles, living cells were stained with acridine-orange (5 µg/ml, Sigma), a membrane-permeable weak base whose fluorescence shifts from green at neutral pH to red in acidic compartments (59). 10 min later, cells were washed and directly observed under a confocal microscope.

Sertoli cell = settings: reported, ref (84); cited from earlier work
p42^ERK2 and p44^ERK1 = test: ERK activation by anti-phospho-ERK Western blotting of cell lysates; format: cell-based, mouse; settings: for ERK activation in Sertoli cells: Lindane 50 µM, DDT 1.8 µM, Bϕ 90 µM, PCP 15 µM; for effect on Lindane-induced ERK activation: pretreatment, PD98059 10 µM, NPPB 25 µM, 90 min
Source text: (§3) After stripping, equal loadings of proteins were verified by reprobing the blots with anti-ERK1 (Santa Cruz Biotechnology).

PKA = test: CREB phosphorylation as readout of PKA activity; format: cell-based; settings: H89
Source text: The emerging issue is therefore how Lindane could activate CFTR Cl^- currents. One possibility would be that Lindane directly activates CFTR, but this appears unlikely because it required minutes instead of seconds to increase Cl^- conductance. […] To further explore this hypothesis, we tested the effect of Lindane on the renal proximal cell line (PCT1). […] Of particular interest, we provide several lines of evidence that the CFTR Δex10 channels remained functional in response to Lindane in PCT cells. […] These finding provide the first evidence that an agonist, e.g. Lindane, could activate CFTR Cl- current independently of PKA, raising the promise for new strategies using Lindane to restore Cl-conductance in cystic fibrosis patients with CFTR variants on PKA sites.

CFTR Cl^- channels = CFTR Cl^- channels (Homo sapiens, UniProt P13569); settings: NPPB 0.1 mM, glibenclamide 0.1 mM, external DIDS 1 mM; review (41); cited from earlier work
CFTR^+/+ cells = test: Starvation-induced autophagic death of CFTR+/+ renal cells; format: cell-based, mouse; settings: 16 hours nutrient deprivation
Method: as §1, §2

CFTR Cl^- channel = CFTR Cl^- channel (Mus musculus, UniProt P26361); test: Whole-cell patch-clamp Cl- currents in Sertoli cells; format: cell-based; design: endogenous in cells; host or cells: Sertoli 42GPA9 cell line (mouse)
Method: Whole cell currents were monitored from Sertoli cells, CFTR^-/- and WT renal epithelial cells with an RK 400 amplifier (Biologic, Münster, Germany) as previously described (40). The bath (extracellular) solution consisted of 140 mM NMDGCl (N-methyl-D-glucamine chloride), 5 mM D-Glucose, 1 mM CaCl2, and 10 mM HEPES, pH 7.4. Patch pipette (intracellular) solution contained 140 mM NMDGCl, 5 mM D-Glucose, 5 mM EGTA, 5 mM MgATP, and 10 mM HEPES, pH 7.4. Osmolarity of both solutions was adjusted to 280 mOSM by adding mannitol. These solutions were designed to study Cl^- currents because Cl^- is the sole permeant ion in these conditions and to prevent Ca^2+ activated Cl^- currents by the addition of EGTA in the patch solution. After establishment of whole cell configuration, cells were stimulated by the addition of Lindane (50 µM), FSK (10 µM), vehicle (Me2S0 or ethanol) in the absence or the presence of NPPB (0.1mM), DIDS (4,4'-diisothiocyanatostilbene-2,2'-disulfonic acid, 1 mM, Sigma), glibenclamide (0.1mM, Sigma) or PD98059 (10 µM) in the bath solution. The cell membrane potential was clamped at -50mV and 400 ms pulses were applied from -100 to +120 mV with increments of 20 mV every 2 s. To generate whole cell current-voltage (I-V) relationship, membrane currents resulting from voltage stimuli were recorded for at least 3 min and analysed using an IBM-AT-compatible computer equipped with Digidata 1200 interface (Axon Instruments) and pCLAMP software (versions 5.51 and 6.0, Axon Instruments), respectively. Statistics-Results are expressed as mean ± S.E. of n observations using the Student's t test.

p38 = p38 / Jun kinase activation by Western blotting of Sertoli cell lysates; format: cell-based, mouse; settings: Sertoli cell lysates treated for 15 min
Source text: as §3

CFTR Cl^- channels, sequence (P13569 whole entry): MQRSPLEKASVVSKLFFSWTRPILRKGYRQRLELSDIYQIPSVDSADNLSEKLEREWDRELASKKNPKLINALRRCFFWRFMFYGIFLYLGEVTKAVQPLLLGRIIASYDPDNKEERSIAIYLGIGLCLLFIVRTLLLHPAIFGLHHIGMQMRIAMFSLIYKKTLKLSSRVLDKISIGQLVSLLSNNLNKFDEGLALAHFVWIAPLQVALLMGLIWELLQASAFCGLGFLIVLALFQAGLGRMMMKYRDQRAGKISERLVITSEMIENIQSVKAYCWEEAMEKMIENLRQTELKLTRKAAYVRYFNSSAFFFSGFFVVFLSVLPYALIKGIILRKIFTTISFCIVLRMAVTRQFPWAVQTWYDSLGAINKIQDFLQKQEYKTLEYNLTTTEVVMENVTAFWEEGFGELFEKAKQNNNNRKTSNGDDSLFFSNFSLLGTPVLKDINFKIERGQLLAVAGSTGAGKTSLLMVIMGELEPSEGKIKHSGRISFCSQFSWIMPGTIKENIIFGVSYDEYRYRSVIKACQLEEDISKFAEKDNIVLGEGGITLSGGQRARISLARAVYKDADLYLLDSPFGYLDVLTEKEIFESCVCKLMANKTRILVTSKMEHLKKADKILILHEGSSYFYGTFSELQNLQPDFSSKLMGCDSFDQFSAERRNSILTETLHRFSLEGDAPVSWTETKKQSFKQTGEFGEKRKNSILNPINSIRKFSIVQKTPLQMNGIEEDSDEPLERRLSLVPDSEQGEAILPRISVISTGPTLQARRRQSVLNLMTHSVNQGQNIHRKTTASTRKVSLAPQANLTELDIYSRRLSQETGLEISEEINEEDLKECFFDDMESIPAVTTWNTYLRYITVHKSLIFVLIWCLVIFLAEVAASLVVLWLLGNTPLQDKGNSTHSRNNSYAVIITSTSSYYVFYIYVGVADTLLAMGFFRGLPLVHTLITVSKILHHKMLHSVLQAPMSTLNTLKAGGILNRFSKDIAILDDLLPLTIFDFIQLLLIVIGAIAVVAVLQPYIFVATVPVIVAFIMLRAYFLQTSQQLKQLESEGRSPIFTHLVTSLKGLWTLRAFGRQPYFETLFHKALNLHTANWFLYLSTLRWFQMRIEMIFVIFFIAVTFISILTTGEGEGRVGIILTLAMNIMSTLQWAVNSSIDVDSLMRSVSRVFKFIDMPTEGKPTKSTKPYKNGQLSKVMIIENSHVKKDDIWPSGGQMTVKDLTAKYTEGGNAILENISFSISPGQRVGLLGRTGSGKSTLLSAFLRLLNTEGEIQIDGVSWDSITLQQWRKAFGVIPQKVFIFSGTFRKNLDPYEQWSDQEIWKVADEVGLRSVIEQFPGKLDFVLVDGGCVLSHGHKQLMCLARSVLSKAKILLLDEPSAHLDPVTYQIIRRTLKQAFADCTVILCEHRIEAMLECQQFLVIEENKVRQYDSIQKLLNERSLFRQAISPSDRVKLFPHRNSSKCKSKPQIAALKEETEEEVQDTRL
CFTR Cl^- channel, sequence (P26361 whole entry): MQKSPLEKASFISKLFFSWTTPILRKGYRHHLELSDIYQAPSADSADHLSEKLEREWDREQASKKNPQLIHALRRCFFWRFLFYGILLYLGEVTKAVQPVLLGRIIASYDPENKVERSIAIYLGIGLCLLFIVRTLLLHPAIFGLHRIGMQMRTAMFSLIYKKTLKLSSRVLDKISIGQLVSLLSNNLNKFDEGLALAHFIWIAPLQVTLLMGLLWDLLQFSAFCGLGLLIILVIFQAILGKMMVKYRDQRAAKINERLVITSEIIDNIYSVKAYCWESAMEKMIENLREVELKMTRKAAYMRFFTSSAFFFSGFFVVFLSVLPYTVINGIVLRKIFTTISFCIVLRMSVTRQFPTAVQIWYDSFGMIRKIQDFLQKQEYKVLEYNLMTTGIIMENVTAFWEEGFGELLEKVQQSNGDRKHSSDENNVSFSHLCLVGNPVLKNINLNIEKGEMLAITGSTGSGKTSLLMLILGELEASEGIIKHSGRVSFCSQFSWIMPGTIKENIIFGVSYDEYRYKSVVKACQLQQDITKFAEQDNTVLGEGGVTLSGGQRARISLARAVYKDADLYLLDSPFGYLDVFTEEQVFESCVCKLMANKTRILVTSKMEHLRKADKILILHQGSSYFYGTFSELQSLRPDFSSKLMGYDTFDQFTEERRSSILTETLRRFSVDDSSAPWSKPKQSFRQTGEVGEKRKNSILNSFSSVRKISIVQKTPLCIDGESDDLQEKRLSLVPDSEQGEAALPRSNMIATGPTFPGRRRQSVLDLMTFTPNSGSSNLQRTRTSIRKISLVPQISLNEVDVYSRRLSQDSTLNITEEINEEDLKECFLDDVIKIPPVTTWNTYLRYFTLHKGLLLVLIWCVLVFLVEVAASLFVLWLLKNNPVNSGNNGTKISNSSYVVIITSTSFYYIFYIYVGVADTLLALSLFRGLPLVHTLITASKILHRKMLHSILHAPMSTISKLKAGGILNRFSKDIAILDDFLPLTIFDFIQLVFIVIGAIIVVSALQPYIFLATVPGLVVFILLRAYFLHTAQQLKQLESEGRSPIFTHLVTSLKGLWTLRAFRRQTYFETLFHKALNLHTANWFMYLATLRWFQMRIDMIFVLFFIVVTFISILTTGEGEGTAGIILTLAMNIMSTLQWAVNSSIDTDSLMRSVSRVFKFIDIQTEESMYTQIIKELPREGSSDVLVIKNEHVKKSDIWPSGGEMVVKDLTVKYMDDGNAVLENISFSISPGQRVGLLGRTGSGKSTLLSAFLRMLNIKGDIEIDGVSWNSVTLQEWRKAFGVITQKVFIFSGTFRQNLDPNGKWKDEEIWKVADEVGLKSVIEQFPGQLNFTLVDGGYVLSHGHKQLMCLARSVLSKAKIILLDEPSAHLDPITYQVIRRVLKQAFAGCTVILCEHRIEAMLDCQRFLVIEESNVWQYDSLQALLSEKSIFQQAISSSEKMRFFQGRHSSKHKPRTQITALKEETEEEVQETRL

Cn1cnc(N)c2ncnc1-2 [3 MA, 3-Methyladenine]
effect on starvation-induced death of CFTR^-/- cells (CFTR^-/- cells): arrested starvation-induced cell death
effect on Lindane-induced vacuolation (Sertoli 42GPA9 cells; 24 h, PD98059 10 µM): dramatically reduced

CO/C1=C\C(C)=C\[C@@H](C)[C@@H](O)[C@@H](C)C/C(C)=C/C=C/[C@H](OC)[C@@H]([C@@H](C)[C@@H](O)[C@H](C)[C@@]2(O)C[C@@H](O)[C@H](C)[C@@H](C(C)C)O2)OC1=O [BafA1, bafilomycin A1]
effect on Lindane-preformed vacuoles (Sertoli 42GPA9 cells): collapsed Lindane-preformed vacuoles
effect on Lindane-induced vacuolation (Sertoli 42GPA9 cells; 24 h, PD98059 10 µM): prevented their formation

Clc1ccc(C(c2ccc(Cl)cc2)C(Cl)(Cl)Cl)cc1 [DDT]
Sertoli cell vacuolation in vivo (Sertoli cell): reported to promote Sertoli cell vacuolation
induction of vacuolation / autophagy by the chemical alone (Sertoli 42GPA9 cells; 24 h): induced vacuolation
ERK activation in Sertoli cells (p42^ERK2 and p44^ERK1): induced the activation of both p42^ERK2 and p44^ERK1

O=S(=O)(NCCNCC=Cc1ccc(Br)cc1)c1cccc2cnccc12 [H89]
effect on Lindane-induced CREB phosphorylation (PKA): failed to counteract Lindane-induced CREB phosphorylation

Cl.N [NH4Cl]
induction of vacuolation / autophagy by the chemical alone (Sertoli 42GPA9 cells; 24 h): did not alter cell morphology
effect on toxicant-induced vacuole development (Sertoli 42GPA9 cells; NH4Cl 5 mM added to medium): accelerated toxicant-induced vacuole development

O=C(O)c1cc([N+](=O)[O-])ccc1NCCCc1ccccc1 [NPPB, 5-nitro-2-(3-phenylpropylamino) benzoic acid]
sensitivity of CFTR Cl^- channels to blocker (CFTR Cl^- channels): sensitive
outcome of CFTR^+/+ cells under nutrient deprivation in the presence of inhibitor (CFTR^+/+ cells): cell death
effect on Lindane-preformed vacuoles (Sertoli 42GPA9 cells): collapsed Lindane-preformed vacuoles
effect on Lindane-induced vacuolation (Sertoli 42GPA9 cells; 24 h, PD98059 10 µM): abrogated Lindane-induced vacuolation
effect on Lindane-induced ERK activation (p42^ERK2 and p44^ERK1): still stimulated

COc1cccc(-c2cc(=O)c3ccccc3o2)c1N [PD98059]
effect on Lindane-induced CFTR Cl- conductance (CFTR Cl^- channel; PD98059 10 µM + Lindane): dramatically reduced
whole-cell I-V relationship with inhibitor alone (CFTR Cl^- channel; PD98059 alone): identical to control I-V
outcome of CFTR^+/+ cells under nutrient deprivation in the presence of inhibitor (CFTR^+/+ cells): cell death
ultrastructure in the presence of inhibitor plus Lindane (Sertoli 42GPA9 cells; PD98059 10 µM + Lindane, electron microscopy): dramatic accumulation of lamellar structures
effect on chloroquine-induced vacuolation (Sertoli 42GPA9 cells; chloroquine 500 µM, 24 h, PD98059 10 µM): did not affect chloroquine-induced vacuolation
effect on Lindane-induced vacuolation (Sertoli 42GPA9 cells; 24 h, PD98059 10 µM): abrogated Lindane-induced vacuolation
effect on Lindane-induced ERK activation (p42^ERK2 and p44^ERK1): drastically reduced the ability of Lindane to activate ERK

Oc1c(Cl)c(Cl)c(Cl)c(Cl)c1Cl [Pentachlorophenol]
Sertoli cell vacuolation in vivo (Sertoli cell): does not
p38 activation (p38): concomitantly activated p38
induction of vacuolation / autophagy by the chemical alone (Sertoli 42GPA9 cells; 24 h): no vacuolation was observed
ERK activation in Sertoli cells (p42^ERK2 and p44^ERK1): strong activator of ERK1/2

COc1ccc(Cl)cc1C(=O)NCCc1ccc(S(=O)(=O)NC(=O)NC2CCCCC2)cc1 [glibenclamide]
sensitivity of CFTR Cl^- channels to blocker (CFTR Cl^- channels): sensitive

biphenol A
induction of vacuolation / autophagy by the chemical alone (Sertoli 42GPA9 cells; 24 h): induced vacuolation
ERK activation in Sertoli cells (p42^ERK2 and p44^ERK1): induced the activation of both p42^ERK2 and p44^ERK1
